Laboratory results: BindingDB's records for doi:10.1021/acs.jmedchem.9b00021 (2019)

Molecular target: T1, Menin (Homo sapiens, UniProt O00255)
T1 sequence (O00255 whole entry): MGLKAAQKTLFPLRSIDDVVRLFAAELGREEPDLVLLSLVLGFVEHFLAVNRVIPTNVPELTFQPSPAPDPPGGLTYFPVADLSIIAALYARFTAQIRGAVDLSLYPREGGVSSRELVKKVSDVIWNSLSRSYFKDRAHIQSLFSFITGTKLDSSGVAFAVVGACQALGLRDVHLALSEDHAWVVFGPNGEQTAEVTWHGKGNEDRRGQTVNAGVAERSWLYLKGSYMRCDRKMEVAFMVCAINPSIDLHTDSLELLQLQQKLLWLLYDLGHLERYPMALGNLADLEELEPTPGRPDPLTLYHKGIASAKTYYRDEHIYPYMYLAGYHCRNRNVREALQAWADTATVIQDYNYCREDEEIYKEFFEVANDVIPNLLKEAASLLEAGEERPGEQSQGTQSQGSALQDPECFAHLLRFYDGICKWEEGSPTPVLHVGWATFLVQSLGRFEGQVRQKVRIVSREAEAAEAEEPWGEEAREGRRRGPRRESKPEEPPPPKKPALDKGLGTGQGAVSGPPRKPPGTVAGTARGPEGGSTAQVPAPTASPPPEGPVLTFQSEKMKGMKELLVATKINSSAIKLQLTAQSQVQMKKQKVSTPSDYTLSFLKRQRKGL
Test: Inhibition of FAM-probe binding to Menin (unknown origin) after 60 mins by fluorescence polarization competitive binding assay

IC50: 3.5 µM
Ki: 1100 nM
Compound: CC(=O)O[C@@H]1CCC[C@H]1[C@](C#N)(c1ccccc1)C1CCN(CC2CN(c3ccc(C#N)cc3)C2)CC1
